Experiment: mn = molality of the nth substance listed, in mol/kg
Settings: 101 kPa, Liquid; for speed of sound: Sing-around technique in a fixed-path interferometer; for mass density: Vibrating tube method

NCC(=O)NCC(=O)O [glycylglycine] + O
Settings | mass density, 293.15 K [kg/m3] | mass density, 298.15 K [kg/m3] | mass density, 303.15 K [kg/m3] | speed of sound, 293.15 K [m/s] | speed of sound, 298.15 K [m/s] | speed of sound, 303.15 K [m/s]
m1 = 0.0467 | 1000.84 | 999.656 | 998.24 | 1486.4 | 1500.5 | 1512.8
m1 = 0.103 | 1003.95 | 1002.74 | 1001.3 | 1491.2 | 1505.2 | 1517.2
m1 = 0.1479 | 1006.4 | 1005.17 | 1003.71 | 1495 | 1508.8 | 1520.7
m1 = 0.1998 | 1009.2 | 1007.93 | 1006.45 | 1499.3 | 1513 | 1524.8
m1 = 0.251 | 1011.92 | 1010.63 | 1009.13 | 1503.5 | 1517 | 1528.7
m1 = 0.2973 | 1014.35 | 1013.04 | 1011.52 | 1507.3 | 1520.6 | 1532.2
m1 = 0.347 | 1016.93 | 1015.59 | 1014.07 | 1511.3 | 1524.4 | 1536
m1 = 0.402 | 1019.73 | 1018.38 | 1016.83 | 1515.7 | 1528.7 | 1540.2
m1 = 0.4499 | 1022.14 | 1020.78 | 1019.21 | 1519.3 | 1532.3 | 1543.6

NCC(=O)NCC(=O)NCC(=O)O [glycylglycylglycine] + O
Settings | mass density, 293.15 K [kg/m3] | mass density, 298.15 K [kg/m3] | mass density, 303.15 K [kg/m3] | mass density, 308.15 K [kg/m3] | speed of sound, 293.15 K [m/s] | speed of sound, 298.15 K [m/s] | speed of sound, 303.15 K [m/s] | speed of sound, 308.15 K [m/s]
m1 = 0.025 | 1000.18 | 999.002 | 997.591 | 995.964 | 1485.2 | 1499.3 | 1511.6 | 1522.2
m1 = 0.05 | 1002.1 | 1000.91 | 999.479 | 997.839 | 1487.9 | 1501.9 | 1514.1 | 1524.6
m1 = 0.075 | 1004 | 1002.79 | 1001.35 | 999.696 | 1490.5 | 1504.4 | 1516.5 | 1527
m1 = 0.0999 | 1005.88 | 1004.66 | 1003.2 | 1001.54 | 1493.1 | 1507 | 1518.9 | 1529.3
m1 = 0.1248 | 1007.76 | 1006.52 | 1005.05 | 1003.37 | 1495.6 | 1509.5 | 1521.3 | 1531.6
m1 = 0.15 | 1009.64 | 1008.38 | 1006.9 | 1005.21 | 1498.1 | 1511.8 | 1523.7 | 1533.9
m1 = 0.175 | 1011.5 | 1010.22 | 1008.72 | 1007.02 | 1500.6 | 1514.2 | 1526 | 1536.1
m1 = 0.1926 | 1012.79 | 1011.5 | 1010 | 1008.29 | 1502.3 | 1515.9 | 1527.7 | 1537.7
m1 = 0.2706 | 1018.47 | 1017.13 | 1015.58 | 1013.84 | 1509.7 | 1522.9 | 1534.4 | 1544.3

O [water] + NCC(=O)NCC(=O)NCC(=O)O
Settings | mass density [kg/m3]
308.15 K, m2 = 0 | 994.08

— the NIST ThermoML archive (doi:10.1016/j.jct.2012.10.018)
